The test system of test [1] is H929 human cancer cell lines. Description: Cellular viability / proliferation (Cell TiterGlo, 72 h). It is filed as cell-based. An outline of the steps: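 Top dose 50 μM, serially diluted 2-fold, applied one day after seeding (1,000 cells/well, 10% FBS), DMSO below 1%.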
(In ATP-based viability assays light output follows the ATP content of the culture.)

The target of the next test is Mcl-1 (Homo sapiens (Human), UniProt Q07820). Put plainly: Fluorescence polarization anisotropy (FPA) competition assay, FITC-Bak or FITC-Bim BH3 peptide. It is filed as binding. Conditions: read-out: Ki for Inhibition of Mcl-1 by FPA assay.
The mark [2] stands for this setting: Homo sapiens, NCI-H929, 72 h, read-out: GI50 on cellular proliferation of H929 human cancer cell lines, H929 cells, 72 h, Cell TiterGlo, 10% FBS.
Setting [3] is: H929 cells, 72 h, Cell TiterGlo, 10% FBS, read-out: GI50 on cellular proliferation of H929 human cancer cell lines.

Read-outs that look alike come from different tables or passages of the source.

Among the data in patent publication US11596639B2, “Substituted indole Mcl-1 inhibitors” (Vanderbilt University, priority 2016, dated 2023) are GI50 and Ki values, retold here.

By Ki is commonly meant the equilibrium dissociation constant of an inhibitor or competing ligand from its target.

Mcl-1, sequence (Q07820 172-327): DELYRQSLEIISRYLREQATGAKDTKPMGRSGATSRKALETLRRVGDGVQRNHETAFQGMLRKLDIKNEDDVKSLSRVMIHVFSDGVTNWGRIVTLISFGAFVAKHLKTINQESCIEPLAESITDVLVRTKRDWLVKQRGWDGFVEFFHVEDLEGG

For `COc1cccc(Cn2c(C(=O)O)cc3cccc(N4C[C@@H](C)n5c(c(CCCOc6cc(C)c(Cl)c(C)c6)c6ccc(Cl)c(-c7c(C)nn(C)c7C)c65)C4=O)c32)n1` [Example 360, (R)-7-(7-Chloro-10-(3-(4-chloro-3,5-dimethylphenoxy)propyl)-4-methyl-1-oxo-6-(1,3,5-trimethyl-1H-pyrazol-4-yl)-3,4-dihydropyrazino[1,2-a]indol-2(1H)-yl)-1-((6-methoxypyridin-2-yl)methyl)-1H-indole-2-carboxylic acid], the GI50 in test [1] (setting [2]) stood at 2.5 µM. The Ki on Mcl-1 came to 0.0025 µM.

As for `Cc1cc(OCCCc2c3n(c4c(-c5c(C)nn(C)c5C)c(Cl)ccc24)[C@H](C)CN(c2cn(C)c4ccc(C(=O)NO)cc24)C3=O)cc(C)c1Cl` [Example 361, (R)-3-(7-Chloro-10-(3-(4-chloro-3,5-dimethylphenoxy)propyl)-4-methyl-1-oxo-6-(1,3,5-trimethyl-1H-pyrazol-4-yl)-3,4-dihydropyrazino[1,2-a]indol-2(1H)-yl)-N-hydroxy-1-methyl-1H-indole-5-carboxamide], the GI50 in test [1] (setting [2]) was 0.29 µM. In addition, the Ki on Mcl-1 amounted to 0.002 µM.

For `Cc1cc(OCCCc2c3n(c4c(-c5c(C)nn(C)c5C)c(Cl)ccc24)[C@H](C)CN(c2cn(C)c4c(-c5nnn(C)n5)cccc24)C3=O)cc(C)c1Cl` [Example 362, (R)-7-Chloro-10-(3-(4-chloro-3,5-dimethylphenoxy)propyl)-4-methyl-2-(1-methyl-7-(2-methyl-2H-tetrazol-5-yl)-1H-indol-3-yl)-6-(1,3,5-trimethyl-1H-pyrazol-4-yl)-3,4-dihydropyrazino[1,2-a]indol-1(2H)-one], the GI50 in test [1] (setting [2]) worked out at 0.97 µM. Also, the Ki on Mcl-1 came out at 0.0017 µM.

Consider `Cc1ccc(Cn2c(C(=O)O)cc3cccc(N4C[C@@H](C)n5c(c(CCCOc6cc(C)c(Cl)c(C)c6)c6ccc(Cl)c(-c7c(C)nn(C)c7C)c65)C4=O)c32)nc1` [Example 363, (R)-7-(7-Chloro-10-(3-(4-chloro-3,5-dimethylphenoxy)propyl)-4-methyl-1-oxo-6-(1,3,5-trimethyl-1H-pyrazol-4-yl)-3,4-dihydropyrazino[1,2-a]indol-2(1H)-yl)-1-((5-methylpyridin-2-yl)methyl)-1H-indole-2-carboxylic acid], for which the GI50 in test [1] (setting [2]) came to 1.4 µM. For the same compound, the Ki at Mcl-1 was 0.0016 µM.

As to `COCCn1c(C(=O)O)cc2cc(C(C)C)cc(N3C[C@@H](C)n4c(c(CCCOc5cc(C)c(Cl)c(C)c5)c5ccc(Cl)c(-c6c(C)nn(C)c6C)c54)C3=O)c21` [Example 364, (R)-7-(7-Chloro-10-(3-(4-chloro-3,5-dimethylphenoxy)propyl)-4-methyl-1-oxo-6-(1,3,5-trimethyl-1H-pyrazol-4-yl)-3,4-dihydropyrazino[1,2-a]indol-2(1H)-yl)-5-isopropyl-1-(2-methoxyethyl)-1H-indole-2-carboxylic acid], in test [1] (setting [2]), the GI50 worked out at 0.54 µM. Further, the Ki at Mcl-1 amounted to 0.001 µM.

`Cc1cc(OCCCc2c3n(c4c(-c5c(C)nn(C)c5C)c(Cl)ccc24)[C@H](C)CN(c2cn(C)c4cc(Cl)c(C(=O)O)cc24)C3=O)cc(C)c1Cl` [Example 365, (R)-6-Chloro-3-(7-chloro-10-(3-(4-chloro-3,5-dimethylphenoxy)propyl)-4-methyl-1-oxo-6-(1,3,5-trimethyl-1H-pyrazol-4-yl)-3,4-dihydropyrazino[1,2-a]indol-2(1H)-yl)-1-methyl-1H-indole-5-carboxylic acid]: the GI50 in test [1] (setting [2]) was 2 µM. The Ki at Mcl-1 amounted to 0.0017 µM.

With `Cc1cc(OCCCc2c3n(c4c(-c5c(C)nn(C)c5C)c(Cl)ccc24)[C@H](C)CN(c2cn(C)c4ccc(C(=O)NN)cc24)C3=O)cc(C)c1Cl` [Example 366, (R)-3-(7-Chloro-10-(3-(4-chloro-3,5-dimethylphenoxy)propyl)-4-methyl-1-oxo-6-(1,3,5-trimethyl-1H-pyrazol-4-yl)-3,4-dihydropyrazino[1,2-a]indol-2(1H)-yl)-1-methyl-1H-indole-5-carbohydrazide], the GI50 in test [1] (setting [2]) came out at 0.44 µM. On Mcl-1, the Ki stood at 0.0029 µM.

In the case of `Cc1cc(OCCCc2c3n(c4c(-c5c(C)nn(C)c5C)c(Cl)ccc24)[C@H](C)CN(c2cccc4c2cc(C(=O)O)n4CCN2CCOCC2)C3=O)cc(C)c1Cl` [Example 367, (R)-4-(7-Chloro-10-(3-(4-chloro-3,5-dimethylphenoxy)propyl)-4-methyl-1-oxo-6-(1,3,5-trimethyl-1H-pyrazol-4-yl)-3,4-dihydropyrazino[1,2-a]indol-2(1H)-yl)-1-(2-morpholinoethyl)-1H-indole-2-carboxylic acid], in test [1] (setting [2]), the GI50 was determined as 0.4 µM. Also, the Ki at Mcl-1 stood at 0.0012 µM.

Regarding `Cc1cc(OCCCc2c3n(c4c(-c5c(C)nn(C)c5C)c(Cl)ccc24)[C@H](C)CN(c2cccc4ccc(C(=O)O)cc24)C3=O)cc(C)c1Cl` [Example 368, (P, R)-8-(7-Chloro-10-(3-(4-chloro-3,5-dimethylphenoxy)propyl)-4-methyl-1-oxo-6-(1,3,5-trimethyl-1H-pyrazol-4-yl)-3,4-dihydropyrazino[1,2-a]indol-2(1H)-yl)-2-naphthoic acid], the GI50 in test [1] (setting [3]) came out at 0.62 µM. Further, the Ki at Mcl-1 is 0.0014 µM.

Regarding `Cc1cc(OCCCc2c3n(c4c(-c5c(C)nn(C)c5C)c(Cl)ccc24)[C@H](C)CN(c2cn(C)c4cc(-c5nnn(C)n5)ccc24)C3=O)cc(C)c1Cl` [Example 370, (R)-7-Chloro-10-(3-(4-chloro-3,5-dimethylphenoxy)propyl)-4-methyl-2-(1-methyl-6-(2-methyl-2H-tetrazol-5-yl)-1H-indol-3-yl)-6-(1,3,5-trimethyl-1H-pyrazol-4-yl)-3,4-dihydropyrazino[1,2-a]indol-1(2H)-one], the GI50 in test [1] (setting [2]) worked out at 4.5 µM. Also, the Ki on Mcl-1 was 0.0028 µM.

For the compound `Cc1ccnc(Cn2c(C(=O)O)cc3cccc(N4C[C@@H](C)n5c(c(CCCOc6cc(C)c(Cl)c(C)c6)c6ccc(Cl)c(-c7c(C)nn(C)c7C)c65)C4=O)c32)c1` [Example 371, (R)-7-(7-Chloro-10-(3-(4-chloro-3,5-dimethylphenoxy)propyl)-4-methyl-1-oxo-6-(1,3,5-trimethyl-1H-pyrazol-4-yl)-3,4-dihydropyrazino[1,2-a]indol-2(1H)-yl)-1-((4-methylpyridin-2-yl)methyl)-1H-indole-2-carboxylic acid], the GI50 in test [1] (setting [2]) turned out to be 0.3 µM. In addition, the Ki on Mcl-1 is below 0.001 µM.

With `Cc1cc(OCCCc2c3n(c4c(-c5c(C)nn(C)c5C)c(Cl)ccc24)[C@H](C)CN(c2cn(C)c4c(-c5nnnn5C)cccc24)C3=O)cc(C)c1Cl` [Example 372, (R)-7-Chloro-10-(3-(4-chloro-3,5-dimethylphenoxy)propyl)-4-methyl-2-(1-methyl-7-(1-methyl-1H-tetrazol-5-yl)-1H-indol-3-yl)-6-(1,3,5-trimethyl-1H-pyrazol-4-yl)-3,4-dihydropyrazino[1,2-a]indol-1(2H)-one], the GI50 in test [1] (setting [2]) amounted to 2 µM. The Ki on Mcl-1 worked out at 0.0012 µM.

As for `Cc1cc(OCCCc2c3n(c4c(-c5c(C)nc(CN6CCCC6)nc5C)c(Cl)ccc24)CCCN(c2cn(C)c4ccc(C(=O)O)cc24)C3=O)cc(C)c1Cl` [Example 373], the GI50 in test [1] (setting [3]) came to 1.2 µM. Also, at Mcl-1, the Ki amounted to 0.0016 µM.

Turning to `Cc1cc(OCCCc2c3n(c4c(-c5c(C)nn(C)c5C)c(Cl)ccc24)[C@H](C)CN(c2cccc4cc(C(=O)O)n(CC5CCO5)c24)C3=O)cc(C)c1Cl` (stereo partly drawn) [Example 374, 7-((R)-7-Chloro-10-(3-(4-chloro-3,5-dimethylphenoxy)propyl)-4-methyl-1-oxo-6-(1,3,5-trimethyl-1H-pyrazol-4-yl)-3,4-dihydropyrazino[1,2-a]indol-2(1H)-yl)-1-(oxetan-2-ylmethyl)-1H-indole-2-carboxylic acid], the GI50 in test [1] (setting [2]) amounted to 1.5 µM. Besides, the Ki on Mcl-1 turned out to be 0.0037 µM.

As to `Cc1cc(OCCCc2c3n(c4c(-c5c(C)nn(C)c5C)c(Cl)ccc24)[C@H](C)CN(c2nccc4cc(C(N)=O)ccc24)C3=O)cc(C)c1Cl` [Example 375, (R)-1-(7-Chloro-10-(3-(4-chloro-3,5-dimethylphenoxy)propyl)-4-methyl-1-oxo-6-(1,3,5-trimethyl-1H-pyrazol-4-yl)-3,4-dihydropyrazino[1,2-a]indol-2(1H)-yl)isoquinoline-6-carboxamide], in test [1] (setting [2]), the GI50 is 2.5 µM. Moreover, the Ki on Mcl-1 is 0.01 µM.

Consider `Cc1cc(N2C[C@@H](C)n3c(c(CCCOc4cc(C)c(Cl)c(C)c4)c4ccc(Cl)c(-c5c(C)ncnc5C)c43)C2=O)c2c(c1)cc(C(N)=O)n2C` [Example 376, (R)-7-(7-Chloro-10-(3-(4-chloro-3,5-dimethylphenoxy)propyl)-6-(4,6-dimethylpyrimidin-5-yl)-4-methyl-1-oxo-3,4-dihydropyrazino[1,2-a]indol-2(1H)-yl)-1,5-dimethyl-1H-indole-2-carboxamide], for which, in test [1] (setting [2]), the GI50 worked out at 0.75 µM. Moreover, the Ki at Mcl-1 was 0.0065 µM.

With `Cc1cc(OCCCc2c3n(c4c(-c5c(C)nn(C)c5C)c(Cl)ccc24)[C@H](C)CN(c2cccc4cc(C(N)=O)n(C)c24)C3=O)cc(C)c1Cl` [Example 377, (R)-7-(7-chloro-10-(3-(4-chloro-3,5-dimethylphenoxy)propyl)-4-methyl-1-oxo-6-(1,3,5-trimethyl-1H-pyrazol-4-yl)-3,4-dihydropyrazino[1,2-a]indol-2(1H)-yl)-1-methyl-1H-indole-2-carboxamide], the GI50 in test [1] (read-out: GI50 on cellular proliferation of H929 human cancer cell lines, H929 cells, 72 h, Cell TiterGlo, 10% FBS) turned out to be 0.63 µM. For the same compound, the Ki on Mcl-1 is 0.0049 µM.

As to `COc1ccnc(Cn2c(C(=O)O)cc3cccc(N4C[C@@H](C)n5c(c(CCCOc6cc(C)c(Cl)c(C)c6)c6ccc(Cl)c(-c7c(C)nn(C)c7C)c65)C4=O)c32)c1` [Example 378, (R)-7-(7-Chloro-10-(3-(4-chloro-3,5-dimethylphenoxy)propyl)-4-methyl-1-oxo-6-(1,3,5-trimethyl-1H-pyrazol-4-yl)-3,4-dihydropyrazino[1,2-a]indol-2(1H)-yl)-1-((4-methoxypyridin-2-yl)methyl)-1H-indole-2-carboxylic acid], in test [1] (setting [2]), the GI50 stood at 0.41 µM. In addition, the Ki at Mcl-1 was 0.0019 µM.
